≈ marks a conversion by molar mass, not a printed value. Values belong to the molecule of their own block, whether it stands above or below them.
Tests used:
[1] = biological target: T1, Tyrosine-protein kinase BTK (Homo sapiens, UniProt Q06187)
[2] = biological target: Tyrosine-protein kinase BTK (Mus musculus, UniProt P35991)
Homo sapiens [3] = test: Drug metabolism in healthy human plasma treated with GDC-0834 at 35 to 105 mg, po; format: ADME, organism-based; conditions: in vivo
[4] = Clearance in rat; format: ADME, organism-based; conditions: in vivo
[5] = Oral bioavailability in rat compound administered as solution in 20% (v/v) cremophor EL and 10% (v/v) ethanol in water; format: ADME, organism-based; conditions: in vivo
[6] = biological target: T1, Tyrosine-protein kinase BTK; test: Inhibition of BTK (unknown origin) after 1 hr by FRET assay
hERG (KCNH2) = hERG (KCNH2) (Homo sapiens, UniProt Q12809); test: Inhibition of human ERG at 10 uM
Salmonella typhimurium [7] = test: Toxicity in Salmonella typhimurium TA98 in presence of S9 fraction; format: organism-based; conditions: salmonella enterica subsp. enterica serovar typhimurium
Salmonella typhimurium [8] = test: Toxicity in Salmonella typhimurium TA98 in absence of S9 fraction; format: organism-based; conditions: salmonella enterica subsp. enterica serovar typhimurium
Salmonella typhimurium [9] = test: Toxicity in Salmonella typhimurium TA100 in presence of S9 fraction; format: organism-based; conditions: salmonella enterica subsp. enterica serovar typhimurium
Salmonella typhimurium [10] = test: Toxicity in Salmonella typhimurium TA100 in absence of S9 fraction; format: organism-based; conditions: salmonella enterica subsp. enterica serovar typhimurium
[11] = Solubility of the compound in fasted-state simulated intestinal fluid at pH 6.8; format: ADME
[12] = Clearance in mouse; format: ADME, organism-based; conditions: in vivo
[13] = Clearance in dog; format: ADME, organism-based, Canis lupus familiaris; conditions: in vivo
[14] = Clearance in cynomolgus monkey; format: ADME, organism-based, Macaca fascicularis; conditions: in vivo
[15] = Oral bioavailability in mouse; format: ADME, organism-based; conditions: in vivo
[16] = Oral bioavailability in rat compound administered as suspension in crystalline freebase in 0.5% (w/v) methylcellulose and 0.2% (w/v) polysorbate 80 in water; format: ADME, organism-based; conditions: in vivo
[17] = Oral bioavailability in dog compound administered as solution in 60% polyethylene glycol 400 in water; format: ADME, organism-based, Canis lupus familiaris; conditions: in vivo
[18] = Oral bioavailability in dog compound administered as as suspension in crystalline freebase in 0.5% (w/v) methylcellulose and 0.2% (w/v) polysorbate 80 in water; format: ADME, organism-based, Canis lupus familiaris; conditions: in vivo
[19] = Oral bioavailability in cynomolgus monkey; format: ADME, organism-based, Macaca fascicularis; conditions: in vivo
Homo sapiens [20] = test: Drug metabolism in healthy human plasma assessed as formation of M1 metabolite at 35 to 105 mg, po; format: ADME, organism-based; conditions: in vivo

T1 sequence (Q06187 whole entry): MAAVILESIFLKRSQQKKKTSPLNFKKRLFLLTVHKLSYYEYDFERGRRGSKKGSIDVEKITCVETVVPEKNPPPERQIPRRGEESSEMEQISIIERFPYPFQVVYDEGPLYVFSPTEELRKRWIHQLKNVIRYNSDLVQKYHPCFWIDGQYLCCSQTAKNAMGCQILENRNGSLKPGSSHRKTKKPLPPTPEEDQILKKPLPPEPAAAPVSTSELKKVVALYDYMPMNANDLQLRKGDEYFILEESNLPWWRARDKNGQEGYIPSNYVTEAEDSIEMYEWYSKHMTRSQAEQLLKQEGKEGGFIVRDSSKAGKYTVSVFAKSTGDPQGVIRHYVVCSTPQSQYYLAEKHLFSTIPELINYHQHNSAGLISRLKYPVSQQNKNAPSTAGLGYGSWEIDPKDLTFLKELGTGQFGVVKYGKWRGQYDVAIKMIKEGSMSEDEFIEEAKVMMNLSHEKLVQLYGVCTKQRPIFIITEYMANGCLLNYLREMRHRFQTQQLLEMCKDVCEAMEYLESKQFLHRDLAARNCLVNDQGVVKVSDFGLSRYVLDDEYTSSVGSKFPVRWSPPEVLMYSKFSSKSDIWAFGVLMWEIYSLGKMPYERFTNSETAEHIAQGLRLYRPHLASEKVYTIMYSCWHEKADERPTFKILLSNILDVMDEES
Chain of Tyrosine-protein kinase BTK (Mus musculus, UniProt P35991) (P35991 whole entry): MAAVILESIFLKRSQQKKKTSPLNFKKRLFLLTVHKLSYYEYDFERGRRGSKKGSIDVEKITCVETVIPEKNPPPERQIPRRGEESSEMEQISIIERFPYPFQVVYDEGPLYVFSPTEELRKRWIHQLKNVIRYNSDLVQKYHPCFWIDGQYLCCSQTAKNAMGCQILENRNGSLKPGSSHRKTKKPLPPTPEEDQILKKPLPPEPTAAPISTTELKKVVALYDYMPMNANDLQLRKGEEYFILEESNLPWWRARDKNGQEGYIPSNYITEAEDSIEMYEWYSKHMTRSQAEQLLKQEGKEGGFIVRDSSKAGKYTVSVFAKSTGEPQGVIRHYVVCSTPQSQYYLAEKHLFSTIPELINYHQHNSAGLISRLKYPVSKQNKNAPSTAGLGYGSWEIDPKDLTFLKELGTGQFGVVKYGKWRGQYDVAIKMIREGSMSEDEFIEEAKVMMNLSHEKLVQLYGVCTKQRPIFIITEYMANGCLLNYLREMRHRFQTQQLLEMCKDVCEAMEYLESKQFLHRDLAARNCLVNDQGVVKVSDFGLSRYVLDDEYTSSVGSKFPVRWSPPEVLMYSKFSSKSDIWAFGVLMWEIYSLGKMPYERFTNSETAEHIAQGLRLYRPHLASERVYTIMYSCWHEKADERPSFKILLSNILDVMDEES
Chain of hERG (KCNH2) (Q12809 whole entry): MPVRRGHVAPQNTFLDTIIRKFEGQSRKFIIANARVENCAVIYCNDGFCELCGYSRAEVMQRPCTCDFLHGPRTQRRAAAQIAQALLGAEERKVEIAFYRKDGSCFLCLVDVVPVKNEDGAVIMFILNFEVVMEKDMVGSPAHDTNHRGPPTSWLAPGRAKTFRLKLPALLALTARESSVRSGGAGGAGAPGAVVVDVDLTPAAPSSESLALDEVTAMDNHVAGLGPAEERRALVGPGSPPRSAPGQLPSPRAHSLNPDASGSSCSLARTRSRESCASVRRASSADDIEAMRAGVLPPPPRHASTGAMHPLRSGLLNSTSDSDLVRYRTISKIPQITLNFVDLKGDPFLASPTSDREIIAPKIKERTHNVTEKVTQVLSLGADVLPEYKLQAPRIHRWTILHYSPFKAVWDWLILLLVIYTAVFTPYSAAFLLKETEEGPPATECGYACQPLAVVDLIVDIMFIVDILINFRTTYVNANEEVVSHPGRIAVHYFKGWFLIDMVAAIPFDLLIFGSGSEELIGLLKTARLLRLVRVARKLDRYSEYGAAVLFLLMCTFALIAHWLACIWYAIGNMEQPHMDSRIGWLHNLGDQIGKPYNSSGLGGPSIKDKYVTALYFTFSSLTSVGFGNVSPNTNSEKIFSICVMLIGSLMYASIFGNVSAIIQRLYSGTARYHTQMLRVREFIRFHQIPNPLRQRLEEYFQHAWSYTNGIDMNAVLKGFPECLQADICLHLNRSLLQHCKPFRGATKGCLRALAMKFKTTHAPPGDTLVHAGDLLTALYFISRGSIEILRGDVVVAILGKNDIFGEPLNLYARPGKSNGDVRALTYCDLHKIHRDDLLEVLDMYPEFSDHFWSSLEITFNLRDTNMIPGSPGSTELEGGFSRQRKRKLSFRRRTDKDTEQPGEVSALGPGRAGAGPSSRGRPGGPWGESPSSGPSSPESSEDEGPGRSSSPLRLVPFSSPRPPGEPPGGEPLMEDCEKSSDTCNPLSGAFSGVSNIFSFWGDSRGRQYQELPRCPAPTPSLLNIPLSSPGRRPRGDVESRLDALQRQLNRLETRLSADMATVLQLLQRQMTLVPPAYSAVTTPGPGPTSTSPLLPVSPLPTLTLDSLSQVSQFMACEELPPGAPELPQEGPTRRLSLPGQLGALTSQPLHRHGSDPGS

IC50 [1]: 90 nM | IC50 [2]: 1100 nM
Structure (SMILES): Cc1c(NC(=O)c2ccc([Si](C)(C)C)cc2)cccc1-c1cn(C)c(=O)c(Nc2ccc(C(=O)N3CCOCC3)cc2)n1

IC50 [1]: 30 nM | IC50 [2]: 580 nM
Structure (SMILES): Cc1c(NC(=O)c2ccc(C3(C)CC3)cc2)cccc1-c1cn(C)c(=O)c(Nc2ccc(C(=O)N3CCOCC3)cc2)n1

IC50 [1]: 270 nM | IC50 [2]: 3700 nM
Structure (SMILES): Cc1c(NC(=O)c2cnc(C(C)(C)C)nc2)cccc1-c1cn(C)c(=O)c(Nc2ccc(C(=O)N3CCOCC3)cc2)n1

IC50 [1]: 50 nM
Structure (SMILES): Cc1c(NC(=O)c2ncc(C(C)(C)C)cn2)cccc1-c1cn(C)c(=O)c(Nc2ccc(C(=O)N3CCOCC3)cc2)n1

Drug metabolism (Homo sapiens [3]): metabolite_detected
Structure (SMILES): Cc1c(N)cccc1-c1cn(C)c(=O)c(Nc2ccc([C@@H]3C(=O)N(C)CCN3C)cc2)n1

clearance [4]: 5.4 mL/min/kg | bioavailability [5]: 37%
Structure (SMILES): Cc1c(NC(=O)c2cc3c(s2)CCCC3)cccc1-c1cn(C)c(=O)c(Nc2ccncn2)n1

clearance [4]: 6 mL/min/kg | bioavailability [5]: 29% | IC50 [2]: 230 nM
Structure (SMILES): Cc1c(NC(=O)c2cc3c(s2)CCCC3)cccc1-c1cn(C)c(=O)c(Nc2ccc(C(=O)N3CCOCC3)cc2)n1

clearance [4]: 9.2 mL/min/kg | bioavailability [5]: 53% | IC50 [2]: 5000 nM
Structure (SMILES): Cc1c(NC(=O)c2cc3c(s2)CCCC3)cccc1-c1cn(C)c(=O)c(Nc2cccnc2)n1

IC50 [1]: 70 nM | IC50 [2]: 890 nM
Structure (SMILES): Cc1c(NC(=O)c2cnc(C(C)(C)C)cn2)cccc1-c1cn(C)c(=O)c(Nc2ccc(C(=O)N3CCOCC3)cc2)n1

IC50 [2]: 490 nM
Structure (SMILES): Cc1c(NC(=O)c2ccc(C(C)(C)C)s2)cccc1-c1cn(C)c(=O)c(Nc2ccc(C(=O)N3CCOCC3)cc2)n1

clearance [4]: 111 mL/min/kg | bioavailability [5]: < 5% | IC50 [2]: 60 nM
Structure (SMILES): Cc1c(NC(=O)c2cc3c(s2)CCCC3)cccc1-c1cn(C)c(=O)c(Nc2ccc(C3CCN(C)CC3)cc2)n1

IC50 [6]: 225 nM
Structure (SMILES): CCc1ccc(C(=O)Nc2cccc(-c3cn(C)c(=O)c(Nc4ccc(C(=O)N5CCOCC5)cc4)n3)c2C)cc1

IC50 [6]: 4600 nM
Structure (SMILES): Cc1c(NC(=O)c2ccccc2)cccc1-c1cn(C)c(=O)c(Nc2ccc(C(=O)N3CCOCC3)cc2)n1

IC50 [1]: 40 nM | IC50 [2]: 80 nM
Structure (SMILES): CCC(C)(C)c1ccc(C(=O)Nc2cccc(-c3cn(C)c(=O)c(Nc4ccc(C(=O)N5CCOCC5)cc4)n3)c2C)cc1

IC50 [1]: 230 nM | IC50 [2]: 410 nM
Structure (SMILES): Cc1c(NC(=O)c2ccc(N(C)C)cc2)cccc1-c1cn(C)c(=O)c(Nc2ccc(C(=O)N3CCOCC3)cc2)n1

IC50 [2]: 1300 nM
Structure (SMILES): Cc1c(NC(=O)c2cc3c(s2)CCOC3)cccc1-c1cn(C)c(=O)c(Nc2ccc(C(=O)N3CCOCC3)cc2)n1

IC50 [2]: 1300 nM
Structure (SMILES): Cc1c(NC(=O)c2cc3c(s2)CCCC3)cccc1-c1cn(C)c(=O)c(Nc2ccn3ccnc3c2)n1

IC50 [6]: 860 nM
Structure (SMILES): Cc1ccc(C(=O)Nc2cccc(-c3cn(C)c(=O)c(Nc4ccc(C(=O)N5CCOCC5)cc4)n3)c2C)cc1

Structure (SMILES): Cc1c(NC(=O)c2cc3c(s2)CCCC3)cccc1-c1cn(C)c(=O)c(Nc2ccc([C@@H]3C(=O)N(C)CCN3C)cc2)n1
clearance [4]: 4.4 mL/min/kg | bioavailability [5]: 35% | inhibition at 10 µM (hERG (KCNH2)): 27% | Activity (Salmonella typhimurium [7]): Non-toxic | Activity (Salmonella typhimurium [8]): Non-toxic | Activity (Salmonella typhimurium [9]): Non-toxic | Activity (Salmonella typhimurium [10]): Non-toxic | solubility [11]: 7 µg/mL (≈ 11.7 µM) | clearance [12]: 43 mL/min/kg | clearance [13]: 14 mL/min/kg | clearance [14]: 33 mL/min/kg | bioavailability [15]: 18% | bioavailability [16]: 16% | bioavailability [17]: 35% | bioavailability [18]: 32% | bioavailability [19]: 16% | Drug metabolism (Homo sapiens [20]): metabolite_detected

IC50 [1]: 150 nM | IC50 [2]: 2800 nM
Structure (SMILES): Cc1c(NC(=O)c2ccc(C(C)(C)O)cc2)cccc1-c1cn(C)c(=O)c(Nc2ccc(C(=O)N3CCOCC3)cc2)n1

Structure (SMILES): Cc1c(NC(=O)c2cc3c(s2)CCCC3)cccc1-c1cn(C)c(=O)c(Nc2ccc([C@H]3C(=O)N(C)CCN3C)cc2)n1
clearance [4]: 11 mL/min/kg | bioavailability [5]: 41%

IC50 [1]: 130 nM | IC50 [2]: 3500 nM
Structure (SMILES): Cc1c(NC(=O)c2ccc(C(C)(C)C)nc2)cccc1-c1cn(C)c(=O)c(Nc2ccc(C(=O)N3CCOCC3)cc2)n1

IC50 [2]: 1100 nM
Structure (SMILES): Cc1c(NC(=O)c2cc3c(s2)CCCC3)cccc1-c1cn(C)c(=O)c(Nc2ccc3[nH]ccc3c2)n1

IC50 [2]: 800 nM
Structure (SMILES): Cc1c(NC(=O)c2cc3c(s2)CCCC3)cccc1-c1cn(C)c(=O)c(Nc2ccc(N3CC[C@@H](N(C)C)C3)cc2)n1

IC50 [2]: 150 nM
Structure (SMILES): Cc1c(NC(=O)c2ccc(C(C)(C)C)cc2)cccc1-c1cn(C)c(=O)c(Nc2ccc(C(=O)N3CCOCC3)cc2)n1

IC50 [2]: 23900 nM
Structure (SMILES): Cc1c(NC(=O)c2cc3c(s2)CCCC3)cccc1-c1cn(C)c(=O)c(Nc2ccc(-c3ncc[nH]3)cc2)n1

Source: ChEMBL document CHEMBL3400008, “Potent and selective Bruton's tyrosine kinase inhibitors: discovery of GDC-0834” (Bioorg Med Chem Lett, 2015)
